Among the data in article PMC10193983 (Proceedings of the National Academy of Sciences of the …, 2023) are Kd values, retold here.

The target in this assay is MnMT4. The assay is described as follows: biolayer interferometry. The class given is binding, Mycolicibacterium neoaurum.

Each structure is given as a SMILES string.

Molecule `Nc1ncnc2c1ncn2[C@@H]1O[C@H](CSCC[C@H](N)C(=O)O)[C@@H](O)[C@H]1O` [SAH] came in with a Kd of 0.0291 µM.
For `C[S+](CC[C@H](N)C(=O)[O-])C[C@H]1O[C@@H](n2cnc3c(N)ncnc32)[C@H](O)[C@@H]1O` (some centres unmarked) [SAM], the affinity, expressed as Kd, was 18.4 µM.
